Results: patent publication US10760110B2, “Antibiotic testing and screening system” (priority 2017, dated 2020)
Where two headings read alike, the source gives them in different places.

Columns and labels:
[1] = tested on: K. pneumoniae NVT1001 and its GyrA/ParC and ΔramR mutants; assay: Etest MIC of quinolones, GyrA/ParC mutations and AcrAB-TolC overexpression (ΔramR) (Table 10); type: cell-based; conditions: Klebsiella pneumoniae
Text: DNA fragments of the entire gyrA and parC sequences along with their flanking regions were amplified from K. pneumoniae strain NVT1001 using PCR with specific primer pairs and then cloned into the plasmid pUT-KB. The QuikChange site-directed mutagenesis kit (Stratagene) was used to generate mutations in the gyrA and parC genes in the plasmid using the methods described by the manufacturer. For homologous recombination, plasmids containing mutations in the gyrA or parC gene were transformed into E. coli S17-1 λpir^23 via electroporation and mobilized into K. pneumoniae strain NVT1001 via conjugation. Single-crossover strains were selected from BIND plates supplemented with kanamycin (50 mg/L), as the growth of non-K. pneumoniae contaminants is suppressed on BIND plates.^24 After the kanamycin-resistant transconjugants were selected, the insertion of plasmids was verified via PCR. After incubation in 20 mL BHI broth for 6 hours at 37° C. in the absence of kanamycin, the fully grown cultures were spread onto LB agar plates supplemented with 10% sucrose. After the double crossover occurred, the sucrose-resistant and kanamycin-susceptible colonies were selected, and the gene mutations were confirmed via PCR.
(§1) The MICs of antibiotics were determined using the Etest (Biodisk AB, Sweden) according to the manufacturer's instructions. The MICs from the Etest, which fall between standard two-fold dilutions, were rounded up to the next highest two-fold value. The MICs of ceftazidime and cefotaxime against K. pneumoniae NVT1001 harbouring the pACYC177 plasmid with blaOXA-48 were further determined using a broth microdilution test according to the recommendations of the CLSI,^25 and the results were interpreted according to the breakpoints established by the CLSI in 2017.^25 Meanwhile, due to the lack of CLSI breakpoints in 2016 and 2017, the results for cephalothin were interpreted according to the breakpoints established by the CLSI in 2015,^26 and the results for moxifloxacin were interpreted according to the breakpoints established by the EUCAST in 2017.^27

[2] = tested on: A. baumannii KW1 and its GyrA/ParC mutants; assay: Etest MIC of quinolones, GyrA and/or ParC mutations (Table 17); type: cell-based; conditions: Acinetobacter baumannii
Text: DNA fragments of the entire adeR, adeS, gyrA and parC along with their flanking regions were amplified from A. baumannii KW1 using PCR with specific primer pairs and then cloned into plasmid pUT-KB. The QuikChange site-directed mutagenesis kit (Stratagene) was used to generate mutations in the adeR, adeS, gyrA and parC genes in the plasmids using the methods described by the manufacturer. For homologous recombination, plasmids containing mutations in the adeR, adeS, gyrA or parC gene were transformed into E. coli S17-1 λpir^23 via electroporation and mobilized into A. baumannii KW1 via conjugation. Single-crossover strains were selected from Luria-Bertani (LB) plates supplemented with cefotaxime (1 μg/ml) and kanamycin ([…]), as the growth of non-A. baumannii contaminants is suppressed by cefotaxime (1 μg/ml). The kanamycin-resistant transconjugants were selected and the insertion of plasmids was verified via PCR. After incubation in 20 ml brain heart infusion (BHI) broth for 6 hours in the absence of kanamycin at 37° C., the fully grown cultures were spread onto LB plates supplemented with 10% sucrose. After the double crossover occurred, the sucrose-resistant and kanamycin-susceptible colonies were selected, and the gene mutations were confirmed via PCR.
as §1

[3] = tested on: A. baumannii KW1 strains with β-lactamase plasmids; assay: Etest MIC of β-lactams, extended-spectrum β-lactamase, AmpC β-lactamase or carbapenemase (Table 18); type: cell-based, Acinetobacter baumannii; conditions: production of each carbapenemase tested
In short: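 A. baumannii KW1 transformed by electroporation with pYMAb5 or pYMAb5Tc carrying PCR-cloned resistance genes plus flanking regions from clinical plasmids. MICs by Etest; values between two-fold dilutions rounded up to the next two-fold value.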

Structure (SMILES)	MIC ([1]; D87N mutant (GyrA D87N)) [mg/L]	MIC ([1]; D87N/S80I mutant) [mg/L]	MIC ([1]; NVT1001, read-out: MIC) [mg/L]	MIC ([1]; S80I mutant (ParC S80I)) [mg/L]	MIC ([1]; S83F mutant (GyrA S83F)) [mg/L]	MIC ([1]; S83F/D87N mutant) [mg/L]	MIC ([1]; S83F/D87N/S80I mutant) [mg/L]	MIC ([1]; S83F/S80I mutant) [mg/L]	MIC ([1]; S83I mutant (GyrA S83I)) [mg/L]	MIC ([1]; S83I/D87N mutant) [mg/L]	MIC ([1]; S83I/D87N/S80I mutant) [mg/L]	MIC ([1]; S83I/S80I mutant) [mg/L]	MIC ([1]; S83L mutant (GyrA S83L)) [mg/L]	MIC ([1]; S83L/D87N mutant) [mg/L]	MIC ([1]; S83L/D87N/S80I mutant) [mg/L]	MIC ([1]; S83L/S80I mutant) [mg/L]	MIC ([1]; S83Y mutant (GyrA S83Y)) [mg/L]	MIC ([1]; S83Y/D87N mutant) [mg/L]	MIC ([1]; S83Y/D87N/S80I mutant) [mg/L]	MIC ([1]; S83Y/S80I mutant) [mg/L]	also measured
COc1c(N2C[C@@H]3CCCN[C@@H]3C2)c(F)cc2c(=O)c(C(=O)O)cn(C3CC3)c12 [Moxifloxacin, moxifloxacin]	0.5	1	0.125	0.25	0.5	0.5	32	1	1	1	> 32	8	0.5	0.5	32	2	0.5	0.5	32	1	MIC ([1]; ΔramR mutant): 1 mg/L; MIC ([1]; ΔramR/S83I mutant): 8 mg/L; MIC ([1]; ΔramR/S83I/D87N/S80I mutant): > 32 mg/L; MIC ([1]; ΔramR/S83I/S801 mutant): > 32 mg/L; MIC ([2]; E84K mutant): 0.19 mg/L; MIC ([2]; G78C mutant): 0.19 mg/L; MIC ([2]; KW1, read-out: MIC): 0.19 mg/L; MIC ([2]; S80L mutant): 0.25 mg/L; MIC ([2]; S80W mutant): 0.19 mg/L; MIC ([2]; S80Y mutant): 0.19 mg/L; MIC ([2]; S83L mutant): 0.75 mg/L; MIC ([2]; S83L/E84K mutant): 6 mg/L; MIC ([2]; S83L/G78C mutant): 4 mg/L; MIC ([2]; S83L/S80L mutant): 6 mg/L; MIC ([2]; S83L/S80W mutant): 8 mg/L; MIC ([2]; S83L/S80Y mutant): 6 mg/L
CC1COc2c(N3CCN(C)CC3)c(F)cc3c(=O)c(C(=O)O)cn1c23 (stereo not shown) [Ofloxacin, ofloxacin]	1	1	0.25	0.25	2	2	16	2	2	2	32	4	2	2	32	4	2	2	16	2	MIC ([1]; ΔramR mutant): 2 mg/L; MIC ([1]; ΔramR/S83I mutant): > 32 mg/L; MIC ([1]; ΔramR/S83I/D87N/S80I mutant): > 32 mg/L; MIC ([1]; ΔramR/S83I/S801 mutant): > 32 mg/L; MIC ([2]; E84K mutant): 0.38 mg/L; MIC ([2]; G78C mutant): 0.38 mg/L; MIC ([2]; KW1, read-out: MIC): 0.38 mg/L; MIC ([2]; S80L mutant): 0.5 mg/L; MIC ([2]; S80W mutant): 0.5 mg/L; MIC ([2]; S80Y mutant): 0.38 mg/L; MIC ([2]; S83L mutant): 6 mg/L; MIC ([2]; S83L/E84K mutant): > 32 mg/L; MIC ([2]; S83L/G78C mutant): 32 mg/L; MIC ([2]; S83L/S80L mutant): > 32 mg/L; MIC ([2]; S83L/S80W mutant): > 32 mg/L; MIC ([2]; S83L/S80Y mutant): > 32 mg/L
C[C@H]1[C@H](NC(=O)/C(=N\OC(C)(C)C(=O)O)c2csc(N)n2)C(=O)N1S(=O)(=O)O [Aztreonam]	–	–	–	–	–	–	–	–	–	–	–	–	–	–	–	–	–	–	–	–	effects on the MIC [3]: no increase effects
CCn1cc(C(=O)O)c(=O)c2ccc(C)nc21 [Nalidixic acid, nalidixic acid]	> 256	> 256	4	8	> 256	> 256	> 256	> 256	> 256	> 256	> 256	> 256	> 256	> 256	> 256	> 256	> 256	> 256	> 256	> 256	MIC ([1]; ΔramR mutant): 32 mg/L; MIC ([1]; ΔramR/S83I mutant): > 256 mg/L; MIC ([1]; ΔramR/S83I/D87N/S80I mutant): > 256 mg/L; MIC ([1]; ΔramR/S83I/S801 mutant): > 256 mg/L; MIC ([2]; E84K mutant): 12 mg/L; MIC ([2]; G78C mutant): 12 mg/L; MIC ([2]; KW1, read-out: MIC): 12 mg/L; MIC ([2]; S80L mutant): 12 mg/L; MIC ([2]; S80W mutant): 12 mg/L; MIC ([2]; S80Y mutant): 12 mg/L; MIC ([2]; S83L mutant): > 256 mg/L; MIC ([2]; S83L/E84K mutant): > 256 mg/L; MIC ([2]; S83L/G78C mutant): > 256 mg/L; MIC ([2]; S83L/S80L mutant): > 256 mg/L; MIC ([2]; S83L/S80W mutant): > 256 mg/L; MIC ([2]; S83L/S80Y mutant): > 256 mg/L
C[C@H]1COc2c(N3CCN(C)CC3)c(F)cc3c(=O)c(C(=O)O)cn1c23 [Levofloxacin, levofloxacin]	0.5	0.5	0.06	0.125	0.5	0.5	8	0.5	0.5	1	8	2	0.5	0.5	8	1	0.5	0.5	4	1	MIC ([1]; ΔramR mutant): 1 mg/L; MIC ([1]; ΔramR/S83I mutant): 16 mg/L; MIC ([1]; ΔramR/S83I/D87N/S80I mutant): > 32 mg/L; MIC ([1]; ΔramR/S83I/S801 mutant): > 32 mg/L; MIC ([2]; E84K mutant): 0.19 mg/L; MIC ([2]; G78C mutant): 0.19 mg/L; MIC ([2]; KW1, read-out: MIC): 0.19 mg/L; MIC ([2]; S80L mutant): 0.19 mg/L; MIC ([2]; S80W mutant): 0.19 mg/L; MIC ([2]; S80Y mutant): 0.19 mg/L; MIC ([2]; S83L mutant): 1 mg/L; MIC ([2]; S83L/E84K mutant): > 32 mg/L; MIC ([2]; S83L/G78C mutant): 32 mg/L; MIC ([2]; S83L/S80L mutant): > 32 mg/L; MIC ([2]; S83L/S80W mutant): > 32 mg/L; MIC ([2]; S83L/S80Y mutant): > 32 mg/L
